# Experimental data from patent US4074049A, “Antithrombotic 1,3,4-thiadiazole” (The Dow Chemical Company, priority 1976, dated 1978).
# Like-named read-outs stand apart in the source and are kept apart here.
# How the values were obtained:
# [1] = test system: ADP induced platelet aggregation; experiment: In vivo platelet aggregation measurement, filter occlusion technique (Broersma et al.); parameters: species or system beagle dogs; details: 20 mg/kg, intravenous, after 4 hours
# Protocol: Measurement of platelet aggregation in vivo was carried out using the technique described by Broersma, et al., Thomb. diath. Haemorrhag. 29, 201 (1973). Such determinations are based upon the measurement of the blood pressure proximal to a filter with 53 micron openings through which arterial blood flows. Platelet aggregation partially obstructs the filter with time causing a change in the pressure which is proportional to the degree of platelet aggregation (thrombosis).
# Fasted male beagle dogs were anesthetized with sodium pentobarbital (35 mg/kg), heparinized (16.5 μ/kg, i.v.) and tested for platelet function using aggregometry. Compounds were administered intravenously in solutions having the pH adjusted to 7.4. The solution was infused at a rate of 15.3 ml/min to total volume of 5 ml/kg of body weight. Thrombus formation was observed using the filter occlusion technique outlined above. Platelet count, hematocrit, blood pressure, and heart rate were also measured.
# [2] = test system: ADP-induced platelet aggregation; experiment: In vitro inhibition of ADP-induced platelet aggregation (Born technique, optical density, platelet rich plasma); format: cell-based, rat
# Protocol: Rat blood was collected into 3.0 percent trisodium citrate solution (1:10) by cardiac puncture undeer methoxyflurane anesthesia. The blood was centrifuged at 120 g for 10 minutes at room temperature and the supernatant platelet rich plasma was removed and diluted with lactated Ringer's solution containing the […] aggregation inhibiting agent (1.0:1.5). Samples of 1.0 ml were pipetted into plastic test tubes and incubated for three minutes. Plastic equipment was used for all procedures. The concentration of the thiadiazole compound in micromoles inhibiting ADP aggregation by 50 percent (IC50) was determined using changes in optical density as a indicium of platelet aggregation.
# tobacco black shank = experiment: Control of tobacco black shank, soil drench; format: in vivo
# [3] = test system: ADP-induced emboli / platelet aggregation; experiment: Protection of mice from ADP challenge (inclined screen test); format: in vivo; details: 60 mg/kg i.p.; ten mice; ADP i.v. one hour after compound
# Protocol: Emboli formed in the vascular system of mice in response to the administration of ADP cause a stroke-like response that prevents mice from staying on an inclined screen. To illustrate the platelet aggregation inhibition effect of the 1,3,4-thiadiazoles, ten mice were dosed by intraperitoneal injection with 60 mgs per kilogram of body weight of the compound 2,5-bis(2-(diethylamino)ethylthio)-1,3,4-thiadiazole di-p-toluenesulfonic acid salt (Example 3). One hour after compound administration, the mice were challenged with ADP (0.05 M mole/kg) by injection via the tail vein and placed on an inclined screen. Unprotected control mice not injected with thiadiazole were unable to maintain their position on the screen when given a similar injection of ADP.
smiles,measurement,setting,value
"C1CN(CCSc2nnc(SCCN3CCOCC3)s2)CCO1 [2,5-bis-(2-(4-morpholinyl)ethylthio)-1,3,4-thiadiazole]",reduction of ADP induced platelet aggregation in the dog,[1],36%
"CC(=O)Oc1ccccc1C(=O)O [Aspirin, reference compound]",IC50,"[2]; Rattus norvegicus, Platelet, read-out: IC50 ADPmax",12.8 µM
same,IC50,"[2]; Rattus norvegicus, Platelet, read-out: IC50 ADPslope",18.1 µM
"C(CSc1nnc(SCCCN2CCOCC2)s1)CN1CCOCC1 [Example 1, 2,5-bis(3-(4-morpholinyl)-propylthio)-1,3,4-thiadiazole]",activity relative to aspirin in the inhibition of ADP induced platelet aggregation,"[2]; compared with aspirin, conditions of this test",about twice as active as aspirin
same,IC50,"[2]; inhibits maximum ADP-induced platelet aggregation by 50%, rat platelet rich plasma, read-out: IC50 ADPmax",6.28 µM
same,IC50,"[2]; inhibits the speed of the platelet aggregation by 50%, rat platelet rich plasma, read-out: IC50 ADPslope",9.41 µM
"CCN(CC)CCSc1nnc(N)s1 [Example 2, 2-amino-5-(2-(diethylamino)ethylthio)-1,3,4-thiadiazole]",control and killing of tobacco black shank (in words),tobacco black shank,effective in the control and killing of tobacco black shank
same,control of the disease (tobacco black shank),tobacco black shank; solution of 25 ppm,100%
"CCN(CC)CCSc1nnc(SCCN(CC)CC)s1.Cc1ccc(S(=O)(=O)O)cc1.Cc1ccc(S(=O)(=O)O)cc1 [Example 3, 2,5-bis(2-(diethylamino)ethylthio)-1,3,4-thiadiazole di-p-toluenesulfonic acid salt]",mice protected from ADP challenge and able to remain on the screen,[3],40%
